Data as given in patent publication US20220062371A1, “LIGAND-DRUG-CONJUGATES AS SUBSTRATES FOR SELECTIVE CLEAVAGE BY THE EXOPEPTIDASE ACTIVITY OF CATHEPSIN B” (DEBIOPHARM RESEARCH & MANUFACTURING S.A., priority 2017, published 2022).
Read-outs that look alike come from different tables or passages of the source. Positions of bridges follow the written chain, without caps; N, C: chain ends. Non-standard residues stand in square brackets, D forms with d. Residues, ends and D or L forms follow the SMILES beside them. Groups on a side chain read outwards from the residue. Chains are numbered I, II in the order given. *: point of attachment. DM1Mal(CH2)2CO = COc1cc2cc(c1Cl)N(C)C(=O)C[C@H](OC(=O)[C@H](C)N(C)C(=O)CCSC1CC(=O)N(CCC(=O)*)C1=O)[C@]1(C)O[C@H]1[C@H](C)[C@@H]1C[C@@](O)(NC(=O)O1)[C@H](OC)/C=C/C=C(\C)C2; Camptothecin(20S-OCO) = CC[C@@]1(OC(=O)*)C(=O)OCc2c1cc1n(c2=O)Cc2cc3ccccc3nc2-1; X1 = CC[C@@]1(O*)C(=O)OCc2c1cc1n(c2=O)Cc2cc3ccccc3nc2-1; X2 = CC(=O)N[C@@H](CSC1CC(=O)N(CCC(=O)*)C1=O)C(=O)O; Dolaproine = CO[C@@H]([C@@H]1CCCN1)[C@@H](C)C(=O)O; Dil = CC[C@H](C)[C@H](NC)[C@@H](CC(=O)O)OC; NMe2Val = CC(C)[C@@H](C(=O)*)N(C)C; PEG5 = NCCOCCOCCOCCOCCOCCC(=O)O; Cit = NC(=O)NCCC[C@H](N)C(=O)O; PEG4 = NCCOCCOCCOCCOCCC(=O)O; Dap = NC[C@H](N)C(=O)O; Sar = CNCC(=O)O

Biological target: T1, recombinant human Cathepsin B (Homo sapiens, UniProt P07858)
T1 construct: purchased R&D Systems (Bio-Techne AG) 953-CY-010
Assay: Recombinant human Cathepsin B-induced cleavage (in vitro enzymatic cleavage assay, UHPLC-MS/MS)
Format: biochemical
Conditions: for half-life at 10 μM: human; for Ratio (T1/2 Compound/T1/2 Reference): reference Cys-MC-Val-Cit-PABC-MMAF; for cleavage rate compared to reference PABC compound (times faster): versus Cys-MC-Val-Cit-PABC-MMAF
Method: Cat B-induced cleavage of the compounds of the present invention was evaluated according to the in vitro enzymatic cleavage assay using recombinant human Cathepsin B and UHPLC-MS/MS analysis as described below.
Reference compounds Cys-MC-Val-Cit-PABC-MMAF and MMAF were used as positive controls.
The in vitro enzymatic assay was conducted at 37° C. with the test compounds at a concentration of 10 μM (2.5 μM when the test compound is an antibody-drug conjugate) in the presence of activated recombinant human Cathepsin B enzyme at 2 μg/mL in a 25 mM MES buffer pH 5.0. The enzymatic cleavage reaction was stopped for each defined time point by mixing an equal volume of acetonitrile+0.1% FA containing an internal standard (warfarine at 8 μM).
Analysis was conducted using a Waters Acquity UPLC System coupled to a Waters Xevo TQ triple quad mass spectrometer. UHPLC was conducted depending on the test compounds with a BEH C8 1.7 μm 100×2.1 mm or BEH C18 1.7 μm 50×2.1 mm or HSS T3 1.7 μm 50×2.1 mm columns heated at 45° C. or 50° C. and fitted with 2 μm insert filter pre-columns (available from Waters), and solvent systems A1 (H2O+0.1% FA) and B1 (acetonitrile+0.1% FA) at a flow rate of 0.6 mL/min and a 10-95% gradient of B1 over 1.9 min.
MS/MS was performed using electrospray ionization (ESI) interface in positive mode and specific MRM transitions for each tested compound.

[1] = 10 μM test compound, Cathepsin B 2 μg/mL, 25 mM MES buffer pH 5.0, 37° C., read-out: T1/2 Compound
[2] = pH 5, 10 μM test compound, Cathepsin B 2 μg/mL, 25 mM MES buffer pH 5.0, 37° C., read-out: T1/2 Compound
[3] = pH 5, text and figure legends, 10 μM test compound, read-out: t1/2 (Exo-Cat B-induced drug release study)

| Compound | half-life at 10 μM [1] [min] | Ratio (T1/2 Compound/T1/2 Reference) | cleavage rate compared to reference PABC compound (times faster) | half-life at 10 μM [2] [min] | Cat B-induced cleavage, in words | half-life at 10 μM [3] [min] |
| --- | --- | --- | --- | --- | --- | --- |
| CC[C@H](C)[C@@H]([C@@H](CC(=O)N1CCC[C@H]1[C@H](OC)[C@@H](C)C(=O)N[C@@H](Cc1ccccc1)C(=O)NCCCC[C@H](NC(=O)[C@H](CCCNC(=N)N)NC(=O)[C@H](CCCCNC(=O)CCN1C(=O)CC(SCCC(=O)N(C)[C@@H](C)C(=O)O[C@H]2CC(=O)N(C)c3cc(cc(OC)c3Cl)C/C(C)=C/C=C/[C@@H](OC)[C@@]3(O)C[C@H](OC(=O)N3)[C@@H](C)[C@@H]3O[C@@]23C)C1=O)NC(=O)[C@H](CCCNC(=N)N)NC(=O)[C@H](Cc1ccccc1)NC(=O)CCOCCOCCOCCOCCNC(=O)CCN1C(=O)CC(SC[C@H](NC(C)=O)C(=O)O)C1=O)C(=O)N[C@@H](Cc1ccccc1)C(=O)O)OC)N(C)C(=O)[C@@H](NC(=O)[C@H](C(C)C)N(C)C)C(C)C (stereo partly drawn) [Compound 30, Ac-Cys-Mal-PEG4-Phe-Arg-Lys(Mal-DM1)-Arg-Lys(AF)-Phe-OH] ({X2-PEG4}-FRK(DM1Mal(CH2)2CO)RK([Phe-Dolaproine-Dil-Val-NMe2Val])F-OH) | 1.1 | 0.07 | more than 10 fold |  |  |  |
| CC[C@@]1(OC(=O)NC[C@H](NC(=O)[C@H](CCCNC(=N)N)NC(=O)[C@H](Cc2ccccc2)NC(=O)CCOCCOCCOCCOCCOCCNC(=O)[C@@H](N)CCCNC(=N)N)C(=O)N[C@@H](Cc2ccccc2)C(=O)O)C(=O)OCc2c1cc1n(c2=O)Cc2cc3ccccc3nc2-1 [Compound 9, Arg-PEG4-Phe-Arg-Dap(CO-CPT)-Phe-OH] (H-R[PEG5]FR[Dap](Camptothecin(20S-OCO))F-OH; N-terminus assumed) |  | 0.63 |  | 4.5 |  |  |
| Arg-PEG4-[Phe-Arg-Glu(Sar-OCPT)-Arg]2-OH [Compound 18] |  |  |  |  | rapidly released |  |
| CC[C@@]1(OC(=O)CN(C)C(=O)CC[C@H](NC(=O)[C@H](CCCNC(=N)N)NC(=O)[C@H](Cc2ccccc2)NC(=O)CCOCCOCCOCCOCCOCCNC(=O)[C@@H](N)CCCNC(=N)N)C(=O)N[C@@H](Cc2ccccc2)C(=O)O)C(=O)OCc2c1cc1n(c2=O)Cc2cc3ccccc3nc2-1 [Compound 8, Arg-PEG4-Phe-Arg-Glu(Sar-OCPT)-Phe-OH] (H-R[PEG5]FRE([Sar-X1])F-OH; N-terminus assumed) |  | 0.19 |  | 2.2 | rapidly cleaved |  |
| Arg-PEG4-Phe-Arg-Glu(Sar-OCPT)-Arg-Phe-Arg-OH [Compound 16] |  |  |  |  | rapidly cleaved |  |
| CC[C@H](C)[C@@H]([C@@H](CC(=O)N1CCC[C@H]1[C@H](OC)[C@@H](C)C(=O)N[C@@H](Cc1ccccc1)C(=O)NCCCC[C@H](NC(=O)[C@H](CCCCN)NC(=O)[C@H](Cc1ccccc1)NC(=O)CCOCCOCCOCCOCCNC(=O)CCN1C(=O)CC(SC[C@H](NC(C)=O)C(=O)O)C1=O)C(=O)N[C@@H](Cc1ccccc1)C(=O)O)OC)N(C)C(=O)[C@@H](NC(=O)[C@H](C(C)C)N(C)C)C(C)C (stereo partly drawn) [Compound 13, Ac-Cys-Mal-PEG4-Phe-Lys-Lys(AF)-Phe-OH] (I: {X2-PEG4}-FKKF-OH / II: NMe2Val-V[Dil][Dolaproine]F; amide I:3-II:C) |  | 0.15 |  | 1.6 |  | 1.62 |
| CC[C@H](C)[C@@H]([C@@H](CC(=O)N1CCC[C@H]1[C@H](OC)[C@@H](C)C(=O)N[C@@H](Cc1ccccc1)C(=O)N[C@@H](CCCNC(=N)N)C(=O)N[C@@H](Cc1ccccc1)C(=O)N[C@@H](CCCCNC(=O)CCOCCOCCOCCOCCNC(=O)CCN1C(=O)CC(SC[C@H](NC(C)=O)C(=O)O)C1=O)C(=O)O)OC)N(C)C(=O)[C@@H](NC(=O)[C@H](C(C)C)N(C)C)C(C)C (stereo partly drawn) [Compound 3, AF-Arg-Phe-Lys(PEG4-Mal-Cys-Ac)-OH] (NMe2Val-V[Dil][Dolaproine]FRFK([PEG4-X2])-OH) |  | 0.11 |  | 1.4 |  |  |
| CC[C@H](C)[C@@H]([C@@H](CC(=O)N1CCC[C@H]1[C@H](OC)[C@@H](C)C(=O)N[C@@H](Cc1ccccc1)C(=O)N[C@@H](CCCNC(N)=O)C(=O)N[C@@H](CCCCNC(=O)CCOCCOCCOCCOCCNC(=O)CCN1C(=O)CC(SC[C@H](NC(C)=O)C(=O)O)C1=O)C(=O)N[C@@H](Cc1ccccc1)C(=O)O)OC)N(C)C(=O)[C@@H](NC(=O)[C@H](C(C)C)N(C)C)C(C)C (stereo partly drawn) [Compound 19, AF-Cit-Lys(PEG4-Mal-Cys-Ac)-Phe-OH] (NMe2Val-V[Dil][Dolaproine]F[Cit]K([PEG4-X2])F-OH) |  | 0.09 |  | 1.1 |  |  |
| COc1cc2cc(c1Cl)N(C)C(=O)C[C@H](OC(=O)[C@H](C)N(C)C(=O)CCSC1CC(=O)N(CCC(=O)NCCCC[C@H](NC(=O)[C@H](CCCCN)NC(=O)[C@H](Cc3ccccc3)NC(=O)CCOCCOCCOCCOCCNC(=O)CCN3C(=O)CC(SC[C@H](NC(C)=O)C(=O)O)C3=O)C(=O)N[C@@H](Cc3ccccc3)C(=O)O)C1=O)[C@]1(C)O[C@H]1[C@H](C)[C@@H]1C[C@@](O)(NC(=O)O1)[C@H](OC)/C=C/C=C(\C)C2 (stereo partly drawn) [Compound 12, Ac-Cys-Mal-PEG4-Phe-Lys-Lys(Mal-DM1)-Phe-OH] ({X2-PEG4}-FKK(DM1Mal(CH2)2CO)F-OH) |  |  |  | 1.5 |  | 1.53 |
| CC[C@H](C)[C@@H]([C@@H](CC(=O)N1CCC[C@H]1[C@H](OC)[C@@H](C)C(=O)N[C@@H](Cc1ccccc1)C(=O)N[C@@H](CCCNC(N)=O)C(=O)N[C@@H](CCCCNC(=O)CCN1C(=O)CC(SCCC(=O)N(C)[C@@H](C)C(=O)O[C@H]2CC(=O)N(C)c3cc(cc(OC)c3Cl)C/C(C)=C/C=C/[C@@H](OC)[C@@]3(O)C[C@H](OC(=O)N3)[C@@H](C)[C@@H]3O[C@@]23C)C1=O)C(=O)N[C@@H](Cc1ccccc1)C(=O)N[C@@H](CCCCNC(=O)CCOCCOCCOCCOCCNC(=O)CCN1C(=O)CC(SC[C@H](NC(C)=O)C(=O)O)C1=O)C(=O)N[C@@H](Cc1ccccc1)C(=O)O)OC)N(C)C(=O)[C@@H](NC(=O)[C@H](C(C)C)N(C)C)C(C)C (stereo partly drawn) [Compound 31, AF-Cit-Lys(Mal-DM1)-Phe-Lys(PEG4-Mal-Cys-Ac)-Phe-OH] (NMe2Val-V[Dil][Dolaproine]F[Cit]K(DM1Mal(CH2)2CO)FK([PEG4-X2])F-OH) | 1.08 | 0.08 | more than 10 fold |  |  |  |
| COc1cc2cc(c1Cl)N(C)C(=O)C[C@H](OC(=O)[C@H](C)N(C)C(=O)CCSC1CC(=O)N(CCC(=O)NCCCC[C@H](NC(=O)[C@H](CCCCN)NC(=O)[C@H](Cc3ccccc3)NC(=O)[C@H](Cc3ccccc3)NC(=O)[C@H](CCCCNC(=O)CCN3C(=O)CC(SCCC(=O)N(C)[C@@H](C)C(=O)O[C@H]4CC(=O)N(C)c5cc(cc(OC)c5Cl)C/C(C)=C/C=C/[C@@H](OC)[C@@]5(O)C[C@H](OC(=O)N5)[C@@H](C)[C@@H]5O[C@@]45C)C3=O)NC(=O)[C@H](CCCCN)NC(=O)[C@H](Cc3ccccc3)NC(=O)CCOCCOCCOCCOCCNC(=O)CCN3C(=O)CC(SC[C@H](NC(C)=O)C(=O)O)C3=O)C(=O)N[C@@H](Cc3ccccc3)C(=O)O)C1=O)[C@]1(C)O[C@H]1[C@H](C)[C@@H]1C[C@@](O)(NC(=O)O1)[C@H](OC)/C=C/C=C(\C)C2 (stereo partly drawn) [Compound 29, Ac-Cys-Mal-PEG4-[Phe-Lys-Lys(Mal-DM1)-Phe]2-OH] ({X2-PEG4}-FKK(DM1Mal(CH2)2CO)FFKK(DM1Mal(CH2)2CO)F-OH) | 2.4 | 0.23 | ~5 fold |  |  |  |
| COc1cc2cc(c1Cl)N(C)C(=O)C[C@H](OC(=O)[C@H](C)N(C)C(=O)CCSC1CC(=O)N(C[C@H]3CC[C@H](C(=O)NCCCC[C@H](NC(=O)[C@H](CCCNC(N)=O)NC(=O)[C@H](Cc4ccccc4)NC(=O)CCOCCOCCOCCOCCOCCNC(=O)CN4C(=O)CC(SC[C@H](NC(C)=O)C(=O)O)C4=O)C(=O)N[C@@H](Cc4ccc(O)cc4)C(=O)O)CC3)C1=O)[C@]1(C)O[C@H]1[C@H](C)[C@@H]1C[C@@](O)(NC(=O)O1)[C@H](OC)/C=C/C=C(\C)C2 (stereo partly drawn) [Compound 27, Ac-Cys-Ma-PEG5-Phe-Cit-Lys(Mcc-DM1)-Tyr-OH] |  | 0.005 | ~2300 fold | 0.06 |  |  |
| CC[C@@]1(OC(=O)OC[C@H](NC(=O)[C@H](CCCNC(=N)N)NC(=O)[C@H](Cc2ccccc2)NC(=O)CCOCCOCCOCCOCCOCCNC(=O)[C@@H](N)CCCNC(=N)N)C(=O)N[C@@H](Cc2ccccc2)C(=O)O)C(=O)OCc2c1cc1n(c2=O)Cc2cc3ccccc3nc2-1 [Compound 11, Arg-PEG4-Phe-Arg-Ser(CO-CPT)-Phe-OH] (H-R[PEG5]FRS(Camptothecin(20S-OCO))F-OH; N-terminus assumed) |  | 0.2 |  | 2.2 |  |  |
